Values quoted from earlier work in PMC7662321, “Andrographolide and Its 14-Aryloxy Analogues Inhibit Zika and Dengue Virus Infection” (Molecules, 2020).

Tested on: DENV 2
Design: method as in PMID 30396090
Conditions: HepG2 cells; read-out: EC50 towards DENV 2; cited from earlier work

Which EC50 does the source give for `C=C1CC[C@@H]2[C@](C)(CO)[C@H](O)CC[C@@]2(C)[C@@H]1C/C=C1/C(=O)OC[C@H]1O` [Andrographolide] here?
Its EC50 is 21.3 µM.
